From patent US10828308B2, “Treatment of non-alcoholic fatty liver disease or non-alcoholic steatohepatitis with delayed-release 6-mercaptopurine” (Hadasit Medical Research Services and Development Ltd., priority 2015, dated 2020)

Test system: STAM model of non-alcoholic steatohepatitis (NASH mice)
Assay: In vivo efficacy study of DR6-MP in STAM model of non-alcoholic steatohepatitis
Set-up: species or system C57BL/6 mice
Details: 10 mg/kg orally once daily from 6 to 9 weeks of age
From the text: Pathogen-free 14 day-pregnant C57BL/6 mice were obtained. NASH was established in male mice by a single subcutaneous injection of 200 τg streptozotocin after birth and feeding with a high fat diet ad libitum after 4 weeks of age (day 28±2). Mice were randomized into 5 groups of 8 mice at 6 weeks of age (day 42±2), the day before the start of treatment. Group 1 (Normal): Eight normal mice were fed with normal diet ad libitum without any treatment until 9 weeks of age. Group 2 (Vehicle): Eight NASH mice were orally administered vehicle [0.5% Methyl cellulose] in a volume of 10 mL/kg once daily from 6 to 9 weeks of age. […]
Mice in all groups were sacrificed for the following assays at 9 weeks of age: • Measurement of organ weight • Individual liver weight was measured. • Liver-to-body weight ratio was calculated. • Biochemical assays • Serum ALT and AST levels were measured. • Liver triglyceride contents were quantified. • Histological analyses for liver sections (according to a routine method). • HE staining and estimation of NAFLD Activity score. • Sirius-red staining and estimation of fibrosis area. • Immunochemical staining for F4/80 and estimation of the percentage of inflammation area. • Gene expression assays using total RNA from the liver. • Real-time RT-PCR analyses were performed for TNF-α, INF-γ, IL-10, MCP-1, CCR2, α-SMA, TGF-β, Collagen Type 1, Collagen Type 3, TIMP-1.

CCCc1nc2c(C)cc(-c3nc4ccccc4n3C)cc2n1Cc1ccc(-c2ccccc2C(=O)O)cc1 [Telmisartan]
fibrosis area (Sirius red-positive area) compared with the Vehicle group: significant decreases in fibrosis area | Sirius red-positive area (%) (mean ± SD) (liver sections at 9 weeks): 0.74 ± 0.21%
